Structures are written as SMILES. Converted amounts (≈) assume the structure as drawn. A value given as a limit tells only on which side of the number the result lay.

The conditions of this data set: buffer; pH 7.4; 200.0 µM.
In turn, `CCOc1cc(C2NC(=O)c3ccccc3O2)ccc1OC(C)C` (centres undefined) showed a kinetic solubility of 14.1 µg/mL (≈ 43.1 µM).
For `Cc1ccc2oc(/N=C(\N)NC(=O)C(C)(C)C)nc2c1` the value was 1.2 µg/mL (≈ 4.37 µM).
On to `OCCCc1cn(Cc2ccccc2)c2ccccc12`, for which the solubility (kinetic) stood at 22.9 µg/mL (≈ 86.3 µM).
`CC(NC(=O)c1ccc(F)cc1Cl)C1CC2CCC1C2` (centres undefined) displayed a kinetic solubility of 16.6 µg/mL (≈ 56.1 µM).
As for `O=[N+]([O-])c1ccc(C(O)CN2CCN(c3ccccc3)CC2)cc1` (centres undefined), the solubility (kinetic) is 3 µg/mL (≈ 9.16 µM).
The compound `COCC(=O)Nc1cc(C)cn(Cc2ccc(F)cc2)c1=O` came in with a kinetic solubility above 45.6 µg/mL.
`O=C(Cn1cnc2ccccc21)Nc1cccc([N+](=O)[O-])c1` gave a kinetic solubility of 42.8 µg/mL (≈ 144 µM).
`O=C(Nc1ccc(F)cc1)C(=O)C1C(=O)Nc2ccccc21` (centres undefined) returned a kinetic solubility above 44.7 µg/mL.
In the case of `CC1CCC(NC(=O)C(C)N2C(=O)C3CCCCC3C2=O)CC1` (centres undefined), the solubility (kinetic) is above 48.1 µg/mL.
`COc1ccc(CNc2nc(NC(C)=O)nn2-c2ccccc2)cc1` registered a kinetic solubility above 50.6 µg/mL.
With `Cc1nc(-c2ccccc2)ccc1C(=O)O`, the kinetic solubility is above 32 µg/mL.
In turn, `CC(C)(C)c1ccc(/C=C2/SC(N3CCCC3)=NC2=O)cc1` registered a solubility (kinetic) of 15.4 µg/mL (≈ 49 µM).
`COc1ccc(/C=N/NC(=O)CNC(=O)c2ccncc2)cc1` had a kinetic solubility above 46.8 µg/mL.
Turning to `CC(=O)c1ccc(OCc2ncc(C(F)(F)F)cc2Cl)cc1`, the solubility (kinetic) was 23.6 µg/mL (≈ 71.6 µM).
In the case of `CSc1cccc(NC(=S)N2CCC(N(C)C3CCCC3)CC2)c1`, the solubility (kinetic) was above 54.5 µg/mL.
`Clc1cccc(OCCCCN2CCCCC2)c1` had a solubility (kinetic) of 31 µg/mL (≈ 116 µM).
Turning to `CC1CCC2(CC1)NC(=O)N(CC(=O)NCc1ccc(Cl)cc1)C2=O` (centres undefined), the kinetic solubility came out at 6.3 µg/mL (≈ 17.3 µM).
Consider `CC(C)(C)c1csc(NC(=O)c2ccc(Br)o2)n1`, for which the kinetic solubility was found to be 16 µg/mL (≈ 48.6 µM).
For `O=C(O)C1C2CCC(C2)C1C(=O)NCCc1ccc(F)cc1` (centres undefined), the solubility (kinetic) is above 45.8 µg/mL.
In the case of `O=[N+]([O-])c1ccccc1Oc1ncccc1[N+](=O)[O-]`, the solubility (kinetic) was 27.3 µg/mL (≈ 105 µM).
In the case of `Cc1ccc(-c2nc3ccccc3c(=O)o2)cc1`, the kinetic solubility was found to be 1.2 µg/mL (≈ 5.06 µM).
For `CC1COc2ccccc2N1C(=O)c1cccnc1Cl` (centres undefined) the value was above 43.3 µg/mL; for `CN(C)c1ccc(P(=O)(OC2CCCCC2)C(O)c2ccccn2)cc1` (centres undefined), above 56.2 µg/mL; for `CSCCC(NC(=O)c1ccco1)C(=O)NC1CCC(C)CC1` (centres undefined), above 50.8 µg/mL.
Turning to `Cn1c(N)c(C(=O)COC(=O)c2ccc(C(F)(F)F)cc2)c(=O)n(C)c1=O`, the kinetic solubility is 15.2 µg/mL (≈ 39.4 µM).
The compound `COc1ccc(C2(c3ccc(OC)cc3)NC(=O)N(CC(=O)NC3CCS(=O)(=O)C3)C2=O)cc1` (centres undefined) showed a kinetic solubility above 73.1 µg/mL.
In turn, `Cc1cc(NCCCN(C)C)n2c(nc3ccccc32)c1C#N` had a solubility (kinetic) above 46.1 µg/mL.
In turn, `COC(=O)C1CCC(=S)N1C(=O)c1ccccc1` (centres undefined) returned a solubility (kinetic) above 39.5 µg/mL.
`O=C(Nc1cccc(NC(=O)c2cccs2)c1)c1ccc(F)cc1` had a solubility (kinetic) below 0.4 µg/mL.
`O=C(NC(=S)Nc1ccc(Cl)cc1Cl)C1CC1` registered a kinetic solubility of 0.8 µg/mL (≈ 2.77 µM).
`CC(C)CC(=O)Nc1ccc(-c2cn3cccnc3n2)cc1` returned a solubility (kinetic) above 44.2 µg/mL.
The compound `CCc1ccc(C2C(C#N)=C(N)Oc3cc(N)ccc32)cc1` (centres undefined) registered a kinetic solubility of 2.4 µg/mL (≈ 8.24 µM).
As to `Cc1cccc(NC(=O)CCCc2ccccc2)c1`, the kinetic solubility worked out at 31.3 µg/mL (≈ 124 µM).
`Cc1ccc(S(=O)(=O)NCc2ccc3c(c2)OCO3)cc1C` came in with a solubility (kinetic) of 5 µg/mL (≈ 15.7 µM).
As for `CCCN1C(=O)C(O)(C2COC(C)(C)CC2=O)c2ccccc21` (centres undefined), the kinetic solubility is 33.7 µg/mL (≈ 106 µM).
As for `CN(CC(=O)Nc1c(Cl)cccc1Cl)CC(=O)N(C)C1(C#N)CCCCC1`, the solubility (kinetic) was above 61.7 µg/mL.
In the case of `CCC(=O)Nc1ccc(N/C(N)=N/c2nc(C)cc(C)n2)cc1`, the kinetic solubility was 36.1 µg/mL (≈ 116 µM).
In turn, `CSc1nsc(SCC(=O)Nc2ccccc2)n1` showed a kinetic solubility of 32.4 µg/mL (≈ 109 µM).
With `O/N=C1\CCCc2ccc3ccccc3c21` the figure was 4.5 µg/mL (≈ 21.3 µM).
Regarding `CN(CC(=O)NC1CCCC1)S(=O)(=O)c1cnc[nH]1`, the kinetic solubility is above 43 µg/mL.
On to `Cc1ccc(C(=O)Nc2ncccc2C)o1`, for which the kinetic solubility was above 32.4 µg/mL.
As for `CCOc1ccc(S(=O)(=O)N(CC)CC(=O)NC2CC2)cc1`, the kinetic solubility is above 49 µg/mL.
`COc1ccccc1NS(=O)(=O)c1cccc(NS(=O)(=O)c2ccc(Cl)c(C(=O)O)c2)c1` showed a solubility (kinetic) above 74.5 µg/mL.
Turning to `CC(C)[C@H](NC(=O)c1ccccc1F)C(=O)OCC(=O)NC1CC1`, the kinetic solubility was 34.3 µg/mL (≈ 102 µM).
`CCOc1cc2c(cc1OC)C(NC(=O)c1ccco1)CC2=O` (centres undefined) displayed a kinetic solubility above 47.3 µg/mL.
Compound `CC(NC(=O)c1c(O)c2ccccc2[nH]c1=O)c1ccccc1` (centres undefined) showed a kinetic solubility below 0.3 µg/mL.
On to `CC(=O)N1CC2([N+](=O)[O-])CN(C(C)=O)CC([N+](=O)[O-])(C1)C2(C)C`, for which the solubility (kinetic) is above 49.2 µg/mL.
The compound `Cc1cc(Nc2cccc(Br)c2)c2ccccc2n1` returned a solubility (kinetic) of 11.9 µg/mL (≈ 38 µM).
Compound `COc1ccccc1NC(=S)Nc1cccc2cnccc12` registered a kinetic solubility of 40.9 µg/mL (≈ 132 µM).
The compound `O=C1COc2ccc(NC(=O)c3ccccc3C(=O)O)cc2N1` showed a kinetic solubility of 40.5 µg/mL (≈ 130 µM).
The compound `COc1ccccc1NC(=O)/C(C#N)=C/c1cccnc1` returned a solubility (kinetic) of 41.3 µg/mL (≈ 148 µM).
For the compound `CC(C)CC(=O)C1=C(O)C(=O)N(Cc2ccccc2)C1c1ccccc1` (centres undefined), the solubility (kinetic) stood at 47.3 µg/mL (≈ 135 µM).
Regarding `C1CCCN(C2CCNCC2)CC1.Cl`, the solubility (kinetic) is above 38.3 µg/mL.
For `COc1ccc(NC(=O)c2ccc(S(=O)(=O)C(F)F)cc2)c(OC)c1`, the kinetic solubility worked out at 13.1 µg/mL (≈ 35.3 µM).
`CC(=O)c1ccc(S(=O)(=O)N(C)C(C)CCc2ccco2)cc1` (centres undefined): the kinetic solubility is 31.8 µg/mL (≈ 94.8 µM).
With `COCCOC(=O)C1=C(C)NC(=O)NC1c1ccco1` (centres undefined) the figure was above 42 µg/mL.
For `O=C(NC1CCSc2ccccc21)c1ccc(F)cc1` (centres undefined) the value was 4.9 µg/mL (≈ 17.1 µM); for `Cc1nnc(NC(=O)C2CC(=O)N(Cc3ccccc3)C2)s1` (centres undefined), above 47.5 µg/mL.
For `NC(=O)C1CCN(C(=O)CNC(=O)c2ccccc2)CC1` the value was above 43.4 µg/mL; for `COc1ccc(NC(=O)c2cc([N+](=O)[O-])ccc2O)cc1`, above 43.2 µg/mL; for `O=C(COC(=O)c1ccccc1F)NC1CC1`, above 35.6 µg/mL.
Compound `Cc1ccsc1C(=O)NCCc1c[nH]c2ccccc12` yielded a solubility (kinetic) above 42.7 µg/mL.
In turn, `CCOc1ccc(S(=O)(=O)N(C)CC(=O)NCc2ccccn2)cc1` returned a kinetic solubility of 50.2 µg/mL (≈ 138 µM).
Take `COc1cc(SC)ccc1C(=O)OCC(=O)N1CCCC1`: the kinetic solubility was above 46.4 µg/mL.
With `Cc1cc(C)cc(C(=O)NCC(=O)OCC(=O)N2CCCCC2)c1` the figure was 49.3 µg/mL (≈ 148 µM).
Compound `COc1cc2ccccc2cc1C(=O)Nc1ccncc1` displayed a kinetic solubility of 38.6 µg/mL (≈ 139 µM).
With `Cc1ccc(NC(=O)C[n+]2ccccc2)cc1C.[Cl-]` the figure was above 41.5 µg/mL; with `Cc1noc(C)c1S(=O)(=O)Nc1ccc(C#N)cc1`, above 41.6 µg/mL; with `O=C(NC(=S)Nc1ccccc1[N+](=O)[O-])c1ccccc1Cl`, 1.2 µg/mL (≈ 3.57 µM).
The compound `Cc1cc(SCC(=O)NC2CCCCC2)nc2ccccc12` yielded a kinetic solubility of 1.2 µg/mL (≈ 3.82 µM).
`Oc1ccccc1N1CCN(c2ccc3ccccc3n2)CC1`: the solubility (kinetic) amounted to 4.2 µg/mL (≈ 13.8 µM).
`Cc1cccc(NC(=O)N2CCCCCC2)c1C` came in with a kinetic solubility above 37 µg/mL.
`CC(=O)Nc1ccc(S(=O)(=O)N2C(C)CCCC2C)cc1` (centres undefined) had a solubility (kinetic) above 46.6 µg/mL.
Compound `O=C(/C(=C(\O)c1ccccc1)c1nc2ccccc2[nH]1)c1ccccc1` returned a kinetic solubility below 0.4 µg/mL.
`O=C(NCc1ccc(F)cc1)Nc1ccc(Cl)cc1` showed a kinetic solubility of 1.1 µg/mL (≈ 3.95 µM).
For `Cc1ccc(C)c(NC(=O)c2cnccn2)c1` the value was 23.9 µg/mL (≈ 105 µM).
Take `COc1ccccc1N1CN(Cc2ccccc2)CNC1=S`: the kinetic solubility was above 47 µg/mL.
For `OC(CN1CCCCC1)c1c[nH]c2ccccc12` (centres undefined) the value was above 36.7 µg/mL; for `O=C(Nc1cccc([N+](=O)[O-])c1)N1CCc2ccccc2C1`, 28.6 µg/mL (≈ 96.2 µM); for `Cc1ccc(/C=C2\C(=O)NC(=O)N2C)o1`, 21.4 µg/mL (≈ 104 µM).
Regarding `NC(=S)Cc1ccc(Cl)cc1Cl`, the kinetic solubility is 30.9 µg/mL (≈ 140 µM).
In the case of `O=C(COc1ccc(Cl)cc1[N+](=O)[O-])N1CCCCCC1`, the solubility (kinetic) was above 46.9 µg/mL.
Consider `Cc1ccc(C(=O)N2c3ccccc3CC2C)o1` (centres undefined), for which the solubility (kinetic) amounted to 31.6 µg/mL (≈ 131 µM).
For `CN(CC(=O)NCCN1CCOCC1)S(=O)(=O)c1ccc(Cl)cc1`, the kinetic solubility was above 56.4 µg/mL.
Take `O=C(CCNS(=O)(=O)c1ccc(OC(F)(F)F)cc1)NC1CC1`: the kinetic solubility was above 52.8 µg/mL.
Regarding `CC1CCCCC1NC(=O)CNC(=O)c1cccs1` (centres undefined), the solubility (kinetic) was above 42.1 µg/mL.
Compound `CC(C)(C)Nc1nc(-c2ccc3c(c2)CCN3C(=O)C2CC2)cs1` showed a kinetic solubility of 5.4 µg/mL (≈ 15.8 µM).
Compound `O=C1OC(NCc2cccnc2)(c2ccc(Cl)cc2)c2ccccc21` (centres undefined) showed a solubility (kinetic) above 52.6 µg/mL.
As to `Cc1cc2oc(=O)cc(CN3CCCCC3C)c2cc1C` (centres undefined), the kinetic solubility came out at 17.9 µg/mL (≈ 62.7 µM).
For `Cc1ccc(S(=O)(=O)NCC(=O)OCC(=O)N2C(C)CCCC2C)cc1` (centres undefined) the value was 53.9 µg/mL (≈ 141 µM); for `CCCC1=[N+](CC(C)=O)CCn2c(C)ccc21.[Br-]`, above 47 µg/mL.
As for `Cc1cc(Cl)ccc1OCC(=O)NC(=S)Nc1ccc(Cl)cn1`, the kinetic solubility is below 0.3 µg/mL.
`CCc1noc(C)c1C(=O)Nc1nc(-c2ccc(F)cc2)c(C)s1` came in with a kinetic solubility of 0.3 µg/mL (≈ 0.869 µM).
With `CC1=NN(C(N)=S)C(C)(C)C1`, the solubility (kinetic) was above 25.7 µg/mL.
Consider `Cc1cc(-c2ccccc2)nc(SC(C(=O)O)c2ccccc2)n1` (centres undefined), for which the kinetic solubility was 48.1 µg/mL (≈ 143 µM).
Consider `CN(C(=O)CSc1nc2scc(-c3ccccc3)c2c(=O)[nH]1)c1ccccc1`, for which the solubility (kinetic) stood at 11.2 µg/mL (≈ 27.5 µM).
With `COc1cccc(-c2onc3ccc(C(=O)/C=C/N(C)C)cc23)c1` the figure was 14.6 µg/mL (≈ 45.3 µM); with `O=c1c(-c2ccccc2)c(O)c2ccccc2n1-c1ccccc1`, above 47 µg/mL; with `O=C(CCC1CCN(Cc2ccc(Cl)cc2)CC1)NC1CC1`, 41.3 µg/mL (≈ 129 µM).
The compound `CN(C)CCCNCCCNC(=O)/C(=N\O)c1ccccc1` gave a solubility (kinetic) above 46 µg/mL.
As for `S=C(NCc1ccco1)Nc1ccc2c(c1)OCCO2`, the kinetic solubility is above 43.6 µg/mL.
For `CC(=O)C(C)n1cnc2scc(-c3ccc(C)cc3)c2c1=O` (centres undefined), the kinetic solubility was found to be 44.6 µg/mL (≈ 143 µM).
Compound `O=C(CN1CCCCCC1)Nc1ccc([N+](=O)[O-])cc1Cl` displayed a kinetic solubility of 1.1 µg/mL (≈ 3.53 µM).
`Cc1ccc(N2C(=O)CC(NCC3CCCO3)C2=O)cc1` (centres undefined) had a kinetic solubility above 43.3 µg/mL.
